# Measured values as given in publication PMC5826336 (Frontiers in Synaptic Neuroscience, 2018).
# Where two headings read alike, the source gives them in different places.
# How the values were obtained:
# Assay type in all cases: cell-based
# human D2R long isoform [1] = target: T1, human D2R long isoform (Homo sapiens, UniProt P14416); experiment: HitHunter cAMP assay, inhibition of forskolin-stimulated cAMP, agonist mode
# T1 construct: gene DRD2; full-length long isoform stably expressed in CHO-K1 cells from DiscoverX, HitHunter cAMP assay
# T1 sequence (P14416 whole entry, canonical isoform): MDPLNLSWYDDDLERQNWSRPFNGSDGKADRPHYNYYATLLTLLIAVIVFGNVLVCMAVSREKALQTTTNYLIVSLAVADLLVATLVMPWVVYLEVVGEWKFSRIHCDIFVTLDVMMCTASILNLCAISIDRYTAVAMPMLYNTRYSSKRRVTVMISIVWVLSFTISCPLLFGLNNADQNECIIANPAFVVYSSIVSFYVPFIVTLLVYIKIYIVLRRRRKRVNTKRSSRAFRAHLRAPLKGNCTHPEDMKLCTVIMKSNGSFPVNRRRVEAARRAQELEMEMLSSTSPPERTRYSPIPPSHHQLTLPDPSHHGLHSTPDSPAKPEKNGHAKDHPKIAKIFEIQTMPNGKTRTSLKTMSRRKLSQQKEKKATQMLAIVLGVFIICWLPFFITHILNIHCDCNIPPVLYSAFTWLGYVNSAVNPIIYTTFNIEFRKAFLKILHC
# Text: HitHunter cAMP assay, inhibition of forskolin-stimulated cAMP, agonist mode on human D2R long isoform
# [2] = target: T2, D2R long isoform (PathHunter) (Homo sapiens, UniProt P14416); experiment: PathHunter beta-arrestin recruitment, agonist mode
# T2 construct: gene DRD2; long isoform in CHO-K1 PathHunter cells (DiscoverX), beta-galactosidase enzyme-fragment complementation with beta-arrestin; reporter tags not detailed
# T2 sequence (P14416 whole entry, the tested form may be a part, canonical isoform): as the sequence (P14416 whole entry, canonical isoform) above
# Text: PathHunter beta-arrestin recruitment, agonist mode on D2R long isoform (PathHunter)
# human D2R long isoform [3] = target: T1, human D2R long isoform; experiment: antagonism of D2R cAMP and beta-arrestin signaling (data not shown); conditions: CHO-K1
# [4] = read-out: cAMP inhibition assay / EC50 (μM ± SEM)
# [5] = read-out: cAMP inhibition assay / EC50 (μM ± S.E.M.)
Compound,EC50 (human D2R long isoform [1]; [4]),EC50 [2],EC50 (human D2R long isoform [1]; [5]),antagonism of D2R cAMP and beta-arrestin signaling (data not shown) (human D2R long isoform [3])
"Oc1c(CN2CCN(c3ccccn3)CC2)cc(Cl)c2cccnc12 [compound 1, MLS1547]",2.2 ± 0.6 µM,,,
Oc1c(CN2CCN(c3ccccn3)CC2)ccc2cccnc12 [compound 2],0.3 ± 0.09 µM,0.9 ± 0.3 µM,,
Oc1c(CN2CCN(c3ccccn3)CC2)cc(Br)c2cccnc12 [compound 3],7.9 ± 2.1 µM,,,
COc1c(CN2CCN(c3ccccn3)CC2)cc(Cl)c2cccnc12 [compound 4],13.4 ± 11.7 µM,,,
Clc1c(CN2CCN(c3ccccn3)CC2)ccc2cccnc12 [compound 7],6.6 ± 5.5 µM,7.3 ± 1.8 µM,,
c1ccc(N2CCN(Cc3cccc4ccccc34)CC2)nc1 [compound 12],0.7 ± 0.7 µM,,,
Oc1c(CN2CCN(c3cnccn3)CC2)cc(Cl)c2cccnc12 [compound 18],,,3.5 ± 3.4 µM,
Oc1c(CN2CCN(c3ncccn3)CC2)cc(Cl)c2cccnc12 [compound 19],,0.5 ± 0.3 µM,0.7 ± 0.2 µM,
Oc1c(CN2CCN(c3ccccc3)CC2)cc(Cl)c2cccnc12 [compound 23],,,2.8 ± 1.2 µM,
Oc1c(CN2CCN(C3CCCCC3)CC2)cc(Cl)c2cccnc12 [compound 24],,,,compounds with cyclohexane substituents retained binding affinity for the D2R
c1cncc(N2CCN(Cc3ccc4cc[nH]c4c3)CC2)c1 [compound 25],,> 39 µM,,
c1cncc(N2CCN(Cc3cccc4ccccc34)CC2)c1 [compound 28],,7.7 ± 0.3 µM,13.3 ± 8.6 µM,
c1ccc2cc(CN3CCN(c4cnccn4)CC3)ccc2c1 [compound 37],,24.8 ± 15.5 µM,,
c1ccc2c(CN3CCN(c4cnccn4)CC3)cccc2c1 [compound 38],,,27.3 ± 18.2 µM,
c1cnc(N2CCN(Cc3ccc4cc[nH]c4c3)CC2)nc1 [compound 43],,0.1 ± 0.01 µM,0.04 ± 0.01 µM,
c1cnc(N2CCN(Cc3cc4ccccc4[nH]3)CC2)nc1 [compound 44],,1 ± 0.2 µM,0.6 ± 0.5 µM,
c1cnc(N2CCN(Cc3ccc4ccccc4c3)CC2)nc1 [compound 45],,2.6 ± 1.1 µM,0.8 ± 0.1 µM,
c1cnc(N2CCN(Cc3cccc4ccccc34)CC2)nc1 [compound 46],,14.5 ± 1.5 µM,8.5 ± 4 µM,
c1cc2ccc(CN3CCN(C4CCCCC4)CC3)cc2[nH]1 [compound 50],,,,compounds with cyclohexane substituents retained binding affinity for the D2R
